# Test results reported in patent US10919852B2, “Immunomodulator compounds” (CHEMOCENTRYX, INC., priority 2017, dated 2021).
# Target: human PD-L1 / Human PD-1 (Homo sapiens (Human), UniProt Q9NZQ7)
# Assay: Enzyme-Linked Immunosorbent Assay (ELISA), PD-1/PD-L1 binding
# Settings: plate-coated human PD-L1, biotinylated human PD-1
# Summary of the method: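 Compound dilutions (1:5 series) competed with 0.3 μg/mL biotin-labelled human PD-1 for PD-L1 immobilised at […], for 1 h at 37 °C. Read-out was A450 after streptavidin-HRP and a 20 min TMB reaction, stopped with 2 N H2SO4.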
# Chain of human PD-L1 / Human PD-1 (Q9NZQ7 19-239): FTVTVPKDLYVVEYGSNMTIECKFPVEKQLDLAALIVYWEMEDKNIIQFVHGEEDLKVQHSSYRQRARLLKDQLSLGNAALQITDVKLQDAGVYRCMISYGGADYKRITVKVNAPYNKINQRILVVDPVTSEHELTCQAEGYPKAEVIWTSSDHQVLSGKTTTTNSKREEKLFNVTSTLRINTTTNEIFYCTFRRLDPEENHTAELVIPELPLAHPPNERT
row,Compound,IC50
1,Cc1c(OCCCN2CCC(C)(F)CC2)cccc1-c1cccc2c1CC[C@@H]2Oc1cc(OCc2cncc(C#N)c2)c(CNC[C@@H]2CCC(=O)N2)cc1Cl,< 5 nM
2,N#Cc1cncc(COc2cc(O[C@H]3CCc4c(-c5cccc(OCCCN6CCC(F)CC6)c5Cl)cccc43)c(Cl)cc2CN2CC(C(=O)O)C2)c1,< 5 nM
3,Cc1c(OCCCN2CCC(O)CC2)cccc1-c1cccc2c1CC[C@@H]2Oc1cc(OCc2cncc(C#N)c2)c(CN2CC(C(=O)O)C2)cc1Cl,< 5 nM
4,C[C@@](CO)(NCc1cc(Cl)c(O[C@@H]2c3cccc(-c4cccc(OCCCN5CC(O)C5)c4Cl)c3C[C@@H]2F)cc1OCc1cc(C#N)cc(C#N)c1)C(=O)O,< 5 nM
5,Cc1c(OCCCN2CCC(O)CC2)cccc1-c1cccc2c1CC[C@@H]2Oc1cc(OCc2cc(C#N)cc(C#N)c2)c(CN[C@@](C)(CO)C(=O)O)cc1Cl,< 5 nM
6,N#Cc1cncc(COc2cc(O[C@H]3CCc4c(-c5cccc(OCCCN6CC7(CC(O)C7)C6)c5Cl)cccc43)c(Cl)cc2CN[C@@H]2CCCC[C@@H]2O)c1,< 5 nM
7,CCOc1cc(O[C@@H]2c3cccc(-c4cccc(OCCCN5CCC(C)(F)CC5)c4C)c3C[C@@H]2F)c(Cl)cc1CN[C@H](C(=O)NS(C)(=O)=O)[C@@H](C)O,5 to 500 nM
8,CCOc1cc(O[C@H]2CCc3c(-c4cccc(OCCC(C)(C)N)c4C)cccc32)c(Cl)cc1CNC[C@@H]1CCC(=O)N1,5 to 500 nM
9,CCOc1cc(O[C@H]2CCc3c(-c4cccc(OCCCN5CC(C)(C)C5)c4C)cccc32)c(Cl)cc1CNC[C@@H]1CCC(=O)N1,5 to 500 nM
10,CCOc1cc(O[C@H]2CCc3c(-c4cccc(OCCCN(C)C(C)C)c4C)cccc32)c(Cl)cc1CNC[C@@H]1CCC(=O)N1,< 5 nM
11,C[C@@H](O)[C@H](NCc1cc(Cl)c(O[C@H]2CCc3c(-c4cccc(OCCCN5CCC(O)CC5)c4Cl)cccc32)cc1OCc1cncc(C#N)c1)C(N)=O,< 5 nM
12,CCOc1cc(O[C@H]2CCc3c(-c4cccc(OCCCN5CC(O)C5)c4Cl)cccc32)c(Cl)cc1CN[C@@](C)(CO)C(=O)O,< 5 nM
13,N#Cc1cncc(COc2cc(O[C@H]3CCc4c(-c5cccc(OCCCN6CCC(F)CC6)c5Cl)cccc43)c(Cl)cc2CN[C@H]2CCOC[C@H]2O)c1,< 5 nM
14,CCOc1cc(O[C@H]2CCc3c(-c4cccc(OCCCN5CCC5(C)C)c4C)cccc32)c(Cl)cc1CN(C)CCn1nn[nH]c1=O,5 to 500 nM
15,C[C@@](CO)(NCc1cc(Cl)c(O[C@H]2CCc3c(-c4cccc(OCCCN)c4Cl)cccc32)cc1OCc1cncc(C#N)c1)C(=O)O,< 5 nM
16,N#Cc1cncc(COc2cc(O[C@H]3CCc4c(-c5cccc(OCCCN6CC7(CC(F)C7)C6)c5Cl)cccc43)c(Cl)cc2CN2CCC3(C2)NC(=O)NC3=O)c1 (stereo partly shown),5 to 500 nM
17,Cc1c(OCCCN2CCC(F)CC2)cccc1-c1cccc2c1CC[C@@H]2Oc1cc(OCc2cc(C#N)cc(C#N)c2)c(CN[C@H]2CCNC2=O)cc1Cl [drawing 345],5 to 500 nM
18,N#Cc1cncc(COc2cc(O[C@H]3CCc4c(-c5cccc(OCCCN6CC7(C6)CC(F)(F)C7)c5Cl)cccc43)c(Cl)cc2CN2CC3(C2)NC(=O)NC3=O)c1,5 to 500 nM

row,Compound,IC50
1,Cc1c(OCCCN2CCC(O)CC2)cccc1-c1cccc2c1CC[C@@H]2Oc1cc(OCc2cncc(C#N)c2)c(CN[C@@H]2CCC[C@H]2O)cc1Cl,< 5 nM
2,CCOc1cc(O[C@H]2CCc3c(-c4cccc(OCCCN5CCC5(C)C)c4C)cccc32)c(Cl)cc1CN(CC)CCC(=O)O,5 to 500 nM
3,Cc1c(OCCCN2CCC(F)(C#N)CC2)cccc1-c1cccc2c1CC[C@@H]2Oc1cc(OCc2cc(C#N)cc(C#N)c2)c(CN[C@H]2CCC(=O)NC2)cc1Cl,5 to 500 nM
4,Cc1c(OCCCN2CCC(F)CC2)cccc1-c1cccc2c1CC[C@@H]2Oc1cc(OCc2cncc(C#N)c2)c(CN[C@H](C(=O)O)[C@@H](C)O)cc1Cl,< 5 nM
5,CC1(O)CN(Cc2cc(Cl)c(O[C@H]3CCc4c(-c5cccc(OCCCN6CCC(F)CC6)c5Cl)cccc43)cc2OCc2cncc(C#N)c2)C1,< 5 nM
6,N#Cc1cncc(COc2cc(O[C@H]3CCc4c(-c5cccc(OCCCN6CC7(CC(O)C7)C6)c5Cl)cccc43)c(Cl)cc2CN2CCC3(C2)NC(=O)NC3=O)c1 (stereo partly shown),5 to 500 nM
7,Cc1c(OCCCN2CC3(CC(F)C3)C2)cccc1-c1cccc2c1CC[C@@H]2Oc1cc(OCc2cc(C#N)cc(C#N)c2)c(CN[C@H]2CCC(=O)NC2)cc1Cl,< 5 nM
8,N#Cc1cncc(COc2cc(O[C@H]3CCc4c(-c5cccc(OCCCN6CC[C@@H](F)C6)c5Cl)cccc43)c(Cl)cc2CN[C@@H]2CCCC[C@@H]2O)c1,< 5 nM
9,CCN1CCC(COc2cccc(-c3cccc4c3CC[C@@H]4Oc3cc(OCc4cncc(C#N)c4)c(CNC[C@@H]4CCC(=O)N4)cc3Cl)c2Cl)C1 (stereo partly shown),< 5 nM
10,CC(=O)OC1CCN(CCCOc2cccc(-c3cccc4c3CC[C@@H]4Oc3cc(OCc4cncc(C#N)c4)c(CN[C@@H]4CCCC[C@@H]4O)cc3Cl)c2Cl)CC1,< 5 nM
11,N#Cc1cncc(COc2cc(O[C@H]3CCc4c(-c5cccc(OCCCN6CC7(CC(F)C7)C6)c5Cl)cccc43)c(Cl)cc2CN[C@@H]2CCCC[C@@H]2O)c1,< 5 nM
12,N#Cc1cncc(COc2cc(O[C@H]3CCc4c(-c5cccc(OCCC(N)=O)c5Cl)cccc43)c(Cl)cc2CNC[C@H]2CCC(=O)N2)c1,5 to 500 nM
13,CCOc1cc(O[C@H]2CCc3c(-c4cccc(OCCCN5[C@H](C)CC[C@H]5C)c4C)cccc32)c(Cl)cc1CN1CCCC[C@@H]1C(=O)O,5 to 500 nM
14,CCOc1cc(O[C@H]2CCc3c(-c4cccc(OCCCN5CCC5(C)C)c4C)cccc32)c(Cl)cc1CNCCB(O)O,5 to 500 nM
15,N#Cc1cncc(COc2cc(O[C@H]3CCc4c(-c5cccc(OCCCN6CC(F)(F)C6)c5Cl)cccc43)c(Cl)cc2CNC[C@H]2CCC(=O)N2)c1,5 to 500 nM
16,N#Cc1cncc(COc2cc(O[C@H]3CCc4c(-c5cccc(OCCCN6CCC(F)CC6)c5Cl)cccc43)c(Cl)cc2CN[C@H]2CCOC[C@@H]2O)c1,< 5 nM
17,CCOc1cc(O[C@H]2CCc3c(-c4cccc(OCCCN5CCC5(C)C)c4C)cccc32)c(Cl)cc1CN(C)CCC(=O)OC(C)(C)C,500 to 20000 nM

# The next lines start with the values.
row,IC50,Compound
1,5 to 500 nM,Cc1c(OCCCN2CCC(F)CC2)cccc1-c1cccc2c1CC[C@@H]2Oc1cc(OCc2cc(C#N)cc(C#N)c2)c(CN[C@H]2CCNC2=O)cc1Cl [drawing 306]
2,5 to 500 nM,CCOc1cc(O[C@H]2CCc3c(-c4cccc(OCCCN5CCC(F)CC5)c4Cl)cccc32)c(Cl)cc1CNCC1CCC(=O)N1 (stereo partly shown)
3,< 5 nM,Cc1c(OCCCN2CCC(F)CC2)cccc1-c1cccc2c1CC[C@@H]2Oc1cc(OCc2cc(C#N)cc(C#N)c2)c(CN[C@H]2CCC[C@@H]2O)cc1Cl
4,< 5 nM,Cc1c(OCCCN2CCC(O)CC2)cccc1-c1cccc2c1CC[C@H]2Oc1cc(OCc2cncc(C#N)c2)c(CN[C@H](C(=O)O)[C@@H](C)O)cc1Cl
5,< 5 nM,N#Cc1cncc(COc2cc(O[C@H]3CCc4c(-c5cccc(OCCCN6CCC(F)CC6)c5Cl)cccc43)c(Cl)cc2CN2CC[C@@H](O)C2)c1
6,5 to 500 nM,CCOc1cc(O[C@H]2CCc3c(-c4cccc(OCCCN5CCC5(C)C)c4C)cccc32)c(Cl)cc1CN1CCNC(=O)CC1
7,5 to 500 nM,CCOc1cc(O[C@H]2CCc3c(-c4cccc(OCCCN5CCC5(C)C)c4C)cccc32)c(Cl)cc1CNCCc1nnn[nH]1
8,5 to 500 nM,CCOc1cc(O[C@H]2CCc3c(-c4cccc(OCCCN5CCC5(C)C)c4C)cccc32)c(Cl)cc1CN1CC(C#N)C1
9,5 to 500 nM,Cc1c(OCCCN2CCC(C)(F)CC2)cccc1-c1cccc2c1CC[C@@H]2Oc1cc(OCc2cc(C#N)cc(C#N)c2)c(CNC[C@@H]2CCC(=O)N2)cc1Cl
10,5 to 500 nM,CCOc1cc(O[C@H]2CCc3c(-c4cccc(OCCCN5[C@H](C)CC[C@H]5C)c4C)cccc32)c(Cl)cc1CN1CCC(O)CC1
11,5 to 500 nM,CCOc1cc(O[C@H]2CCc3c(-c4cccc(OCCCN5CCC5(C)C)c4C)cccc32)c(Cl)cc1CNC[C@H]1CCC(=O)N1
12,5 to 500 nM,N#Cc1cc(C#N)cc(COc2cc(O[C@@H]3c4cccc(-c5cccc(OCCCN6CC(F)C6)c5Cl)c4C[C@H]3F)c(Cl)cc2CNC[C@H]2CCC(=O)N2)c1
13,< 5 nM,CCOc1cc(O[C@H]2CCc3c(-c4cccc(OCCCN5CCC(O)CC5)c4C)cccc32)c(Cl)cc1CN[C@@H](CO)C(=O)O
14,< 5 nM,N#Cc1cncc(COc2cc(O[C@H]3CCc4c(-c5cccc(OCCCN6CC[C@H](F)C6)c5Cl)cccc43)c(Cl)cc2CN[C@@H]2CCCC[C@@H]2O)c1
15,5 to 500 nM,Cc1c(OCCCN2CC3(CC(F)C3)C2)cccc1-c1cccc2c1CC[C@@H]2Oc1cc(OCc2cncc(C#N)c2)c(CNCC2CCC(=O)N2)cc1Cl (stereo partly shown)
16,< 5 nM,CCN1CCC(COc2cccc(-c3cccc4c3CC[C@@H]4Oc3cc(OCc4cncc(C#N)c4)c(CN[C@H]4CCC(=O)NC4)cc3Cl)c2Cl)C1 (stereo partly shown)
17,5 to 500 nM,COc1cc(O[C@H]2CCc3c(-c4cccc(OCCCN5CCC(F)CC5)c4C)cccc32)c(Cl)cc1CN[C@H]1CCC(=O)NC1
18,< 5 nM,N#Cc1cncc(COc2cc(O[C@H]3CCc4c(-c5cccc(OCCCN6CC7(CC(O)C7)C6)c5Cl)cccc43)c(Cl)cc2CN[C@H]2CCC[C@@H]2O)c1
19,5 to 500 nM,Cc1c(OCCCN2CCC(C)(F)CC2)cccc1-c1cccc2c1C[C@@H](F)[C@@H]2Oc1cc(OCc2cc(C#N)cc(C#N)c2)c(CN[C@H]2CCC(=O)NC2)cc1Cl
20,< 5 nM,CCOc1cc(O[C@H]2CCc3c(-c4cccc(OCCCN5CCC5(C)C)c4C)cccc32)c(Cl)cc1CNC[C@@H]1CCC(=O)N1
21,5 to 500 nM,CCOc1cc(O[C@H]2CCc3c(-c4cccc(OCCCN5CCC5(C)C)c4C)cccc32)c(Cl)cc1CNCCn1nn[nH]c1=O
22,5 to 500 nM,Cc1c(OCCCN2CCCC[C@@H]2C)cccc1-c1cccc2c1CC[C@@H]2Oc1cc(OCc2cc(C#N)cc(C#N)c2)c(CNC[C@H]2CCC(=O)N2)cc1Cl
23,< 5 nM,Cc1c(OCCCN2CCCC[C@@H]2C)cccc1-c1cccc2c1CC[C@@H]2Oc1cc(OCc2cc(C#N)cc(C#N)c2)c(CNC[C@@H]2CCC(=O)N2)cc1Cl
24,5 to 500 nM,CCOc1cc(O[C@H]2CCc3c(-c4cccc(OCCC(C)(C)N)c4C)cccc32)c(Cl)cc1CN[C@H]1CCC(=O)NC1
25,5 to 500 nM,CCOc1cc(O[C@H]2CCc3c(-c4cccc(OCCCN5CCC5(C)C)c4C)cccc32)c(Cl)cc1CN(C)CCC(=O)OC(C)C
26,5 to 500 nM,N#Cc1cncc(COc2cc(O[C@H]3CCc4c(-c5cccc(OCCCN6CC7(CC(F)C7)C6)c5Cl)cccc43)c(Cl)cc2CN2CC3(C2)NC(=O)NC3=O)c1
